Like-named read-outs stand apart in the source and are kept apart here.
Assays:
Type in all cases: in vivo
[1] = Plasma/tissue (kidney) distribution; conditions: male, C57BL/6J, mouse, ip, mice (N = 3), 10 mg/kg i.p.
Procedure: Male C57BL/6J mice were used for both blood–brain penetration and plasma/tissue distribution studies, with mice assigned to three groups: 10 mg kg^−1 JX3212 (n = 3), 20 mg kg^−1 JX3212 (n = 3) for blood–brain penetration, and 10 mg kg^−1 JX3212 for plasma/tissue distribution (all administered via intraperitoneal injection), where mice in the blood–brain penetration groups were fasted for 12 h prior to drug administration and 2 h post‐administration; 1 h after drug administration, 0.2 mL of blood was collected from the retro‐orbital/orbital venous plexus into 1.5 mL heparinized tubes, centrifuged at 11 000 rpm for 5 min to obtain plasma (stored at −80 °C for blood–brain penetration groups), while whole brains were excised for blood–brain penetration groups and whole brains plus kidneys (rinsed with physiological saline, blotted dry on filter paper, and accurately weighed) for the plasma/tissue distribution group; plasma samples (20 µL) were mixed with 20 µL internal standard solution and 300 µL acetonitrile for protein precipitation, vortexed for 15 min, centrifuged at 3700 rpm for 15 min at 4 °C, and the supernatant was collected, whereas brain and kidney samples were homogenized in acetonitrile at 10× tissue weight (8000 rpm, 3 × 30 s), sonicated for 5 min, and processed identically to plasma samples; the concentrations of JX3212 in plasma and tissues were quantified by liquid chromatography–tandem mass spectrometry (LC−MS/MS), with lower limits of quantification set to 50 ng mL^−1 for plasma and 50 ng g^−1 for brain tissue.

Kir4.1 cKO mice = assay: NSFT in astrocyte-specific Kir4.1 cKO mice; conditions: 10 mg kg−1 i.p.
Excerpt: Male C57BL/6J mice (6–10 weeks old) and male CD‐1 mice (4–6 months old) were purchased from Shanghai Shengchang Biotechnology Co., Ltd. Kcnj10 ^flox/flox mice were generated by the Cyagen Company (Suzhou, China). The Cas9 protein, two gRNAs (gRNA‐A1: […], gRNA‐A2: […]) and a donor vector containing two loxP sequences flanking exon 2 of mouse Kcnj10 were co‐injected into fertilized eggs. The embryos were transferred to recipient female mice to obtain F0 mice. The genotype was confirmed by PCR using two pairs of primers (F1: 5’‐[…]‐3’, R1: 5’‐[…]‐3’; F2: 5’‐[…]‐3’, R2: 5’‐[…]‐3’) and sequencing. The F0 founder mice were mated with C57BL/6J mice to produce heterozygous F1 offspring. Subsequent intercrosses of F1 heterozygous mice ultimately produced F2 homozygous mice with the Kcnj10 ^flox/flox genotype. Tamoxifen‐induced conditional transgenic mice with Kir4.1 deletion in astrocytes were generated by crossing Aldh1l1‐Cre/ERT2 mice with homozygous Kcnj10 ^flox/flox mice.^[ [32] ^] […]
The mice were individually housed in new cages and deprived of food for 24 h. […] The latency to start chewing food was recorded within 5 min. Immediately thereafter, the mice were placed back in their home cage with pre‐measured food, and the amount consumed in the next 5 min was used as a baseline to account for appetite changes that might affect the outcome.

C57BL/6J mice = assay: Seizure threshold measurement in maximal electroshock (MES); parameters: seizure incidence, Single dose-MES / seizure incidence, Multiple dose-MES: unit not given here; conditions: for seizure incidence, Multiple dose-MES / seizure incidence, Single dose-MES: JX3212 10 mpk
Procedure: Male C57BL/6J mice underwent corneal electroshock stimulation using an Orchid Scientifics EC‐02 stimulator with a fixed pulse duration of 0.2 s. The current intensity was titrated in a stepwise manner (0.1 mA increments) based on real‐time behavioral responses during serial testing. Seizure severity was quantified using the hindlimb tonic extension score, with rigorous blinding applied to the vehicle‐ and JX3212‐treated groups. Subsequently, CS50 values were determined.

C57BL/6J mice after CSDS = assay: CSDS model, forced swim test; conditions: single i.p. injection 10 mg kg−1
Procedure: The 10‐day CSDS paradigm was conducted as previously described.^[ [24] ^] CD‐1 aggressive mice were singly housed in defeat cages on one side of a perforated plexiglass partition 24 h before the defeat session. Experimental C57BL/6J mice were placed daily on the resident cage side of a novel CD‐1 aggressor that rapidly initiated a physical attack on the intruder. After 10‐min of social defeat, the intruder mice were housed on the opposite side of the partition within a shared home cage, experiencing further sensory contact for the subsequent 24 h. In contrast, control mice were maintained in their home cages and allowed to explore the empty defeat cages for 10 min each day.
Mice were placed individually in a transparent glass cylinder (25 cm high, 10 cm wide) filled with water (temperature 23–25 °C) to a depth of 10 cm, and prevented from making contact with the bottom. Mice behaviors were videotaped from each side. The observation period lasted for 6 min, with the final 4 min used to measure immobile behavior, which was processed using the AnyMaze Tracking System (Stoelting).

**Q.** For c1ccc2c(c1)oc1ccc(Nc3ccnc(NCCCN4CCOCC4)n3)cc12 [JX3212, N^4-(dibenzo[b,d]furan-2-yl)-N^2-(3-morpholinopropyl)pyrimidine-2,4-diamine], which concentration at 1 h ([1]; kidney, read-out: Kidney Calculated Concentration) is on record?
**A.** 18400 ± 681 ng/mL

**Q.** And the Kp at 1 h ([1]; kidney/plasma)?
**A.** 78.9 ± 2.74

**Q.** What about the concentration at 1 h ([1]; plasma, read-out: Plasma Calculated Concentration) of the same molecule?
**A.** 234 ± 14.4 ng/mL

**Q.** What about the “NSFT latency in Kir4.1 cKO mice vs vehicle (in words)” value (Kir4.1 cKO mice) of the same molecule?
**A.** comparable latencies

**Q.** And the “seizure susceptibility, maximal electronic seizure model (in words)” value (C57BL/6J mice; 10 mg kg−1, single or 14-day consecutive administration)?
**A.** did not alter seizure susceptibility

**Q.** What about the “seizure incidence, Multiple dose-MES” value (C57BL/6J mice; stimulus 0.45 mA) of the same molecule?
**A.** 0

**Q.** And the “seizure incidence, Single dose-MES” value (C57BL/6J mice; stimulus 0.45 mA)?
**A.** 0

**Q.** What about the “seizure incidence, Multiple dose-MES” value (C57BL/6J mice; stimulus 0.55 mA) of the same molecule?
**A.** 12.5

**Q.** And the “seizure incidence, Single dose-MES” value (C57BL/6J mice; stimulus 0.55 mA)?
**A.** 37.5

**Q.** And the “seizure incidence, Multiple dose-MES” value (C57BL/6J mice; stimulus 0.65 mA)?
**A.** 50

**Q.** And the “seizure incidence, Single dose-MES” value (C57BL/6J mice; stimulus 0.65 mA)?
**A.** 50

**Q.** What about the “seizure incidence, Multiple dose-MES” value (C57BL/6J mice; stimulus 0.75 mA) of the same molecule?
**A.** 87.5

**Q.** What about the “seizure incidence, Single dose-MES” value (C57BL/6J mice; stimulus 0.75 mA) of the same molecule?
**A.** 75

**Q.** And the “CSDS: immobility in FST (in words)” value (C57BL/6J mice after CSDS)?
**A.** reduced immobility duration

— paper PMC12903969, “Discovery of a Novel and Potent Kir4.1 Inhibitor as a Safe and Rapid‐Onset Antidepressant Agent in Mice” (Advanced Science, 2025)
